“Also recorded” adds a separate entry of the source.
Assays:
Fas-L = Fas-L expression in MSCs (western blotting); format: cell-based, mice
Text: Bone marrow cells were flushed from the bone cavity of femurs and tibias of B6 mice (C57BL/6 J) with about 2% heat inactivated fetal bovine serum (Equitech-Bio, Kerrville, Tex., USA) in PBS, and MSCs positive for CD73, CD90, CD105, CD146, CD166, Sca-1 and SSEA-4, but negative for CD11b, CD31, CD34 and CD45, were obtained as previously described by Liu et al. “Mesenchymal stem cell-based tissue regeneration is governed by recipient T lymphocytes via IFN-γ and TNF-α” Nat Med 2011, 17:1594-1601. The entire content of this publication is incorporated herein by reference. The cells with MSC character were cultured with alpha minimum essential medium (Invitrogen) supplemented with about 20% fetal bovine serum and 2 mM L-glutamine (Invitrogen) in a humidified atmosphere of about 95% air and about 5% CO2 at about 37° C. for about 3 days before co-culture. See Oyajobi et al. “Dual effects of macrophage inflammatory protein-1alpha on osteolysis and tumor burden in the murine 5TGM1 model of myeloma bone disease” Blood 2003, 102:311-319. The entire content of this publication is incorporated herein by reference. Additionally, MSCs, which had no Fas-L, were isolated from generalized lymphoproliferative disease (gld) mice for use in comparative experiments. B6 and gld mice in the same background ([…]) were purchased from the Jackson Laboratory. […]

5TGM1 MM cells [1] = assay: MM cell metastasis in lungs and kidneys of MM model mice; format: in vivo; conditions: after about 4 weeks
Description: A 5TGM1 MM model was conducted in weight-matched, 8-week-old to 10-week-old female bg-nu/nu-xid mice from the Jackson Lab (Bar Harbor, Me., USA). The use of animals for research was approved through the Institutional Ethics Committee/Institutional Review Board of the University of Southern California (protocol #10941). The mice were housed in isolator cages, and autoclaved chow and acidified water were provided ad libitum. Disseminated MM was induced through the intravenous inoculation of about 6×10^6 5TGM1 cells in about 200 μl PBS in bg-nu/nu-xid mice through the tail vein (about 6×10^6/10 g body weight). After tumor cell inoculation, multiple MM model mice were randomized to receive the injection of either MSCs (once, about 1×10^6 MSCs/10 g body weight) via the tail vein (MSC group) or […] (L-PAM; weekly, about 50 μg/10 g body weight) in the abdominal cavity (L-PAM group), as shown in FIG. 1A. See Akiyama et al. “Mesenchymal-stem-cell-induced immunoregulation involves FAS-ligand/FAS-mediated T cell apoptosis” Cell Stem Cell 2012, 10:544-555. The entire content of this publication is incorporated herein by reference. L-Phenylalanine mustard, or L-PAM, otherwise known as melphalan, is used as the standard treatment in older MM patients. […]

5TGM1 MM cells [2] = assay: Microcomputed tomography of bone density in MM model mice; format: in vivo; conditions: microcomputed tomography after about 4 weeks; P<0.05
Description: A 5TGM1 MM model was conducted in weight-matched, 8-week-old to 10-week-old female bg-nu/nu-xid mice from the Jackson Lab (Bar Harbor, Me., USA). The use of animals for research was approved through the Institutional Ethics Committee/Institutional Review Board of the University of Southern California (protocol #10941). The mice were housed in isolator cages, and autoclaved chow and acidified water were provided ad libitum. Disseminated MM was induced through the intravenous inoculation of about 6×10^6 5TGM1 cells in about 200 μl PBS in bg-nu/nu-xid mice through the tail vein (about 6×10^6/10 g body weight). […]
The cross-sectional volumetric bone mineral density was measured in right femur diaphysis of the mice in each group after about 4 weeks of feeding (for each group, n=6). […] Using two-dimensional images, a region of interest in secondary spongiosa was manually drawn near the endocortical surface, and cancellous bone morphometric parameters including the bone volume relative to the tissue volume (percentage) and the trabecular thickness (millimeters) were assessed. A trained observer blinded to the composition of the different groups and treatments received analyzed the number and surface area of radiolucent lesions.

5TGM1 MM cells [3] = assay: 5TGM1 multiple myeloma model mice: survival and cancroid pearls; format: in vivo
Description: A 5TGM1 MM model was conducted in weight-matched, 8-week-old to 10-week-old female bg-nu/nu-xid mice from the Jackson Lab (Bar Harbor, Me., USA). The use of animals for research was approved through the Institutional Ethics Committee/Institutional Review Board of the University of Southern California (protocol #10941). The mice were housed in isolator cages, and autoclaved chow and acidified water were provided ad libitum. Disseminated MM was induced through the intravenous inoculation of about 6×10^6 5TGM1 cells in about 200 μl PBS in bg-nu/nu-xid mice through the tail vein (about 6×10^6/10 g body weight). After tumor cell inoculation, multiple MM model mice were randomized to receive the injection of either MSCs (once, about 1×10^6 MSCs/10 g body weight) via the tail vein (MSC group) or […] (L-PAM; weekly, about 50 μg/10 g body weight) in the abdominal cavity (L-PAM group), as shown in FIG. 1A. See Akiyama et al. “Mesenchymal-stem-cell-induced immunoregulation involves FAS-ligand/FAS-mediated T cell apoptosis” Cell Stem Cell 2012, 10:544-555. The entire content of this publication is incorporated herein by reference. L-Phenylalanine mustard, or L-PAM, otherwise known as melphalan, is used as the standard treatment in older MM patients. See Musto P. et al. “Melphalan: old and new uses of a still master drug for multiple myeloma” Expert Opin Investig Drugs 2007, 16:1467-1487. The entire content of this publication is incorporated herein by reference. MM model mice with no treatment served as the positive control (MM group). Original nude mice with no treatment served as the negative control (Control group). The 6-week survival rates of the mice in different groups were compared. After about 4 weeks of feeding, the cancroid pearls in the neck, tail root and abdominal cavity of the mice in different groups were identified for analysis. […]

[4] = neck, tail root and abdominal cavity, after about 4 weeks, versus MM group

Row | Compound | expression of Fas-L in MSCs after aspirin treatment (Fas-L) | metastasis rate in the kidney tissue (5TGM1 MM cells [1]) | bone density (BD) in lumbus and collum femoris (5TGM1 MM cells [2]) | 6-week survival rate (5TGM1 MM cells [3]; MM model mice, MSCs once via tail vein, L-PAM weekly in abdominal cavity, versus untreated MM group, P<0.05) | number of cancroid pearls (5TGM1 MM cells [3]; [4]) | size of cancroid pearls (5TGM1 MM cells [3]; [4])
1 | CC(=O)Oc1ccccc1C(=O)O [Aspirin, aspirin] | enhanced expression of Fas-L in MSCs | – | – | – | – | –
2 | N[C@@H](Cc1ccc(N(CCCl)CCCl)cc1)C(=O)O [L-PAM, L-Phenylalanine mustard] | – | no significant difference | MM group was much lower than those of the MSC group, the L-PAM group | prolonged survival compared with the MM group; also recorded: higher than the MM group | no significant difference | smaller compared with the MM group
